Values after ≈ are worked out from the molar mass of the structure shown.
Conditions: buffer; pH 7.4; 200.0 µM

Row | Compound | solubility kinetic [µg/mL]
1 | N#CCOC(=O)/C=C/c1ccc2c(c1)OCO2 | 4.6 (≈ 19.9 µM)
2 | O=C(CCCNC(=O)c1ccc(Cl)cc1)NCc1ccc(F)cc1 | 4.1 (≈ 11.8 µM)
3 | O=C(CSCc1c(F)cccc1Cl)NCc1ccncc1 | > 48.7
4 | COC(=O)C(C)NC(=O)COc1ccc2ccccc2c1 (stereo unspecified) | > 43.1
5 | CC(=O)c1sc(NC(=O)CCCOc2ccccc2C)nc1C | < 0.4
6 | N#Cc1ccc(CN2C(=O)NC3(CCCCCC3)C2=O)cc1 | 25.7 (≈ 86.4 µM)
7 | CC(=O)Nc1cc2c(cc1[N+](=O)[O-])OCCO2 | > 35.7
8 | O=C(c1ccccc1)N1CCN(C(=O)c2cccnc2)CC1 | > 44.3
9 | CCN(Cc1ccccc1)C(=O)CC(=O)N(CC)Cc1ccccc1 | > 50.8
10 | CC(=O)Nc1ccc(OCCC[n+]2cccc(C(=O)[O-])c2)cc1 | 39.6 (≈ 126 µM)
11 | CC(=O)NC(CC(=O)NCCc1ccccc1)c1ccccc1 (stereo unspecified) | 45.7 (≈ 147 µM)
12 | CCOC(=O)N1CCc2c(sc3ncn(Cc4ccc(F)cc4)c(=O)c23)C1 | 20.8 (≈ 53.7 µM)
13 | CC(=O)N1CCN(c2nnc(-c3ccc(C)cc3)c3ccccc23)CC1 | > 52
14 | Cc1cc(C)nc(NC(=S)Nc2ccccc2)n1 | 0.3 (≈ 1.16 µM)
15 | CN1CCN(CC#Cc2ccccc2)CC1CCO (stereo unspecified) | > 38.8
16 | COc1cc([N+](=O)[O-])ccc1NC(=O)Nc1cccnc1 | 1 (≈ 3.47 µM)
17 | COc1ccc(CC(=O)NCc2ccc3c(c2)cc(C)n3C)cc1OC | 20.8 (≈ 59 µM)
18 | COC(=O)c1cc(S(=O)(=O)N2CCCCC2)c[nH]1 | > 40.8
19 | Cc1nnc(Nc2ccc(C(=O)O)cc2)[nH]c1=O | > 36.9
20 | Cc1ccc(Cl)cc1NC(=O)CCCN1C(=O)c2cccnc2C1=O | > 53.7
21 | COc1ccc(Nc2nc(C)cc(C)c2C(N)=O)cc1OC | 43.8 (≈ 145 µM)

Row | Compound | solubility kinetic [µg/mL]
22 | COCCCn1c(=O)c2ccccc2n(Cc2ccc(C)cc2)c1=O | 2.1 (≈ 6.21 µM)
23 | COc1ccc(CC(=O)NCC(=O)NC(Cc2ccccc2)C(=O)O)cc1 (stereo unspecified) | > 55.6
24 | Cc1ccsc1CN1CC(=O)N(c2c(C)cccc2C)C1=S | 12.2 (≈ 36.9 µM)
25 | O=C1CNC(=S)N1CCOc1ccccc1 | 30.4 (≈ 129 µM)
26 | COc1ccc(CCC(=O)NC(C)c2ccccc2)cc1OC (stereo unspecified) | > 47
27 | O=C(CCCCCl)Nc1c2c(nc3ccccc13)CCC2 | 31.6 (≈ 104 µM)
28 | Cc1csc(SCC(=O)Nc2sccc2C(N)=O)n1 | 43.8 (≈ 140 µM)
29 | Cc1cccc2sc(NC(=O)C3CC3)nc12 | 1.4 (≈ 6.03 µM)
30 | O=C(NC1CC(=O)c2sccc21)c1ccc(Cl)cc1Cl (stereo unspecified) | > 48.9
31 | O=C(COC(=O)c1ccc[nH]c1=O)NCCc1ccc(F)cc1 | 44.6 (≈ 140 µM)
32 | Cc1cc(C(=O)Nc2nncs2)oc1C | > 33.5
33 | CC1=C(C(=O)OCCOC(C)C)C(c2cccc3ccccc23)NC(=O)N1 (stereo unspecified) | 4.6 (≈ 12.5 µM)
34 | NS(=O)(=O)c1ccc(CCNC(=S)NC(=O)c2ccccc2Br)cc1 | 3.3 (≈ 7.46 µM)
35 | Cc1nc(-c2ccc([N+](=O)[O-])cc2)c(-c2ccccc2)o1 | 5.1 (≈ 18.2 µM)
36 | Cc1nc2ccc(Nc3ccncc3)cc2s1 | 34.2 (≈ 142 µM)
37 | CC(=O)NNC(=O)c1[nH]c2ccc(Br)cc2c1-c1ccccc1 | > 55.8
38 | O=C(O)c1ccc(CN2C(=O)c3ccc(C(=O)O)cc3C2=O)cc1 | > 48.8
39 | O=C(Cc1cccs1)Nc1ccccc1 | > 32.6
40 | Cc1cccc(N2CN=C3SCC(=O)N3C2)c1 | > 37.1
41 | COc1ccccc1NC(=O)N1CCOCC1 | > 35.4
42 | CCN1CCN(CCC(=O)Nc2ccccc2)CC1 | > 39.2

Row | Compound | solubility kinetic [µg/mL]
43 | CN(C(=O)c1ccc2c(c1)OCO2)C1CCS(=O)(=O)C1 (stereo unspecified) | > 44.6
44 | COc1cc2c(cc1OC)C(c1cccc(Br)c1)NC(=O)C2 (stereo unspecified) | 43 (≈ 119 µM)
45 | O=C(NCC(c1ccco1)N1CCN(c2ccccc2F)CC1)c1cccs1 (stereo unspecified) | 54.3 (≈ 136 µM)
46 | COc1ccc(C2CC3(O)CC(C#N)(C(=O)N3)C2(C#N)C#N)cc1 (stereo unspecified) | > 48.3
47 | COc1cccc(NC(=O)N2C3CCCC2CC(NC(=O)C2CC2)C3)c1 (stereo unspecified) | 44.4 (≈ 124 µM)
48 | Cc1ccc(CNc2ccc3c(c2)ncn3C(C)C)cc1 | > 41.9
49 | O=C(NCCc1ccccc1)c1ccc2[nH]c(=O)c(=O)[nH]c2c1 | > 46.4
50 | O=C(Nc1ccccc1)NN(C(=O)CCl)c1ccccc1 | > 45.6
51 | COc1cccc(NC(=O)c2cnc[nH]2)c1 | 30.5 (≈ 140 µM)
52 | c1cc(CNCCc2ccc3c(c2)OCO3)ccn1 | 28.5 (≈ 111 µM)
53 | CCOc1ccc(CC(=O)N/N=C/c2cccnc2)cc1 | > 42.5
54 | C=CCN1CCN(C(=O)c2cc3c(s2)CCCC3)CC1 | > 43.6
55 | Cc1nc([N+](=O)[O-])cn1CCC#N | > 27
56 | Cc1nnc(SCC(=O)Nc2ccc(S(N)(=O)=O)cc2)n(N)c1=O | > 55.6
57 | Cn1c(SCc2ccccc2C#N)nnc1-c1ccncc1 | > 46.1
58 | O=C(COC(=O)Cn1cnc2ccccc21)Nc1ccc(OC(F)F)cc1 | > 56.3
59 | Cc1ccc(NC(=O)CCC(=O)N2CCOCC2)nc1 | > 41.6
60 | Nc1cc2c(cc1[N+](=O)[O-])OCCOCCOCCO2 | > 42.6
61 | CC(=O)c1ccc(OCC(=O)Nc2ccc3nc(C)sc3c2)cc1 | 1.4 (≈ 4.11 µM)
